Measured values published in article PMC7470027, “Synthesis and structure-activity relationships of novel 5-(hydroxamic acid)methyl oxazolidinone derivatives as 5-lipoxygenase inhibitors” (Journal of Enzyme Inhibition and Medicinal Chemistry, 2020).
Read-outs that look alike come from different tables or passages of the source.

Tests used:
[1] = test system: 5-LO product LTC4 from isolated human monocytes; experiment: Inhibition of 5-LO product LTC4 from isolated human monocytes (A23187); format: cell-based; details: calcium ionophore A23187, 95% confidence interval in brackets, read-out: Human monocyte LTC4 IC50 (CI)
Description: Mononuclear cells were first isolated from heparinised blood using the Ficoll-Hypaque gradient centrifugation method. Monocytes were subsequently purified by adherence to plastic according to standard protocols. The purity of the adherent monocytes (CD14+) was routinely confirmed by flow cytometry to be >95% and viability (by trypan blue exclusion method) was routinely >97%. Adherent monocytes were then washed and incubated in 190 µl culture medium RPMI-1640 supplemented with 100 U/ml penicillin, 100 µg/ml streptomycin and 10% heat-inactivated foetal bovine serum (Sigma-Aldrich, St Louis, MO). […] After further incubation for 15 min, the culture supernatants were recovered by centrifugation and stored at −40 °C pending LTC4 determination.
(§1) Appropriately diluted supernatants were assayed for the released products – LTs (LTB4 and LTC4), by the enzyme immunoassay (EIA) method using assay kits supplied by R&D Systems (Minneapolis, MN) and following the manufacturer’s instructions.
(§2) All data were analysed using GraphPad Prism software (GraphPad Software, San Diego, CA). […] Differences between experimental groups were first analysed by one-way ANOVA, followed by Bonferroni’s post-hoc test. A p-value of less than 0.05 was taken as statistically significant.

[2] = test system: 5-LO product LTC4 from allergen/IgE-activated bone marrow-derived mouse mast cells (BMMC); experiment: Inhibition of 5-LO product LTC4 from allergen/IgE-activated bone marrow-derived mouse mast cells (BMMC); format: cell-based; details: anti-DNP IgE/DNP-BSA-activated BMMC, 95% confidence interval in brackets, read-out: Mouse mast cell LTC4 IC50 (CI)
Description: Bone marrow-derived mast cells (BMMC) were generated from pathogen-free 5 to 7-weeks-old male Balb/c mice according to the method of Davis et al.[28]. Essentially, bone marrow cells were obtained by flushing the femoral bone marrow and the recovered cells cultured in RPMI 1640 medium supplemented with 10% FBS, 100 U/ml penicillin, and 100 µg/ml streptomycin, 25 mM HEPES, 1.0 mM sodium pyruvate, 0.1 mM nonessential amino acids, 0.0035% 2-mercaptoethanol, and 30 ng/ml mouse recombinant IL-3, with culture medium, replaced every 2 days. Cells were used after 4–8 weeks of culture, by which time at least 97% of the cells would have differentiated into mast cells, as routinely obtained in our laboratory.
The generated BMMCs were seeded at 5 × 10^4 cells/well in a 96-well flat-bottom culture plate and passively sensitised overnight with 0.5 µg/ml anti-DNP monoclonal IgE antibody. The cells were then washed twice to remove any unbound antibody and subsequently resuspended in reaction buffer (135 mM NaCl, 5 mM KCl, 1.8 mM CaCl2, 1 mM MgCl2, 5.6 mM glucose, 0.05% BSA and 20 mM HEPES, pH 7.4). They were then pre-incubated with the test compounds (0.001 − 30 μM) or the solvent (0.05% DMSO) for 15 min before being stimulated with the specific antigen, DNP-BSA (10–30 ng/ml). After 30 min incubation at 37 °C, the amount of LTC4 released into the supernatant was determined by ELISA as described below.
as §1, §2

[3] = test system: 5-LO-dependent generation of LTB4 from activated human whole blood; experiment: Inhibition of 5-LO product LTB4 from activated human whole blood (LPS/FMLP); format: cell-based; details: LPS-primed, FMLP-stimulated human whole blood; 95% confidence interval in brackets; read-out: Human whole blood LTB4 IC50 (CI)
Description: All compounds were evaluated for inhibitory activity against the 5-LO-dependent generation of LTB4 from activated human whole blood. With ethical approval from the Health Sciences Centre Ethical Committee of Kuwait University, heparinised fresh human blood samples from apparently healthy individuals of both sexes were obtained from the Kuwait Central Blood Bank. All donors gave informed consent and the work was carried out in accordance with the “Declaration of Helsinki” for experiments involving human subjects. Aliquots of 185 µl of whole blood were dispensed into each well of a 96-well culture plate containing 5 µl of the priming agent, LPS (1 µg/ml final concentration). […] After further incubation for 15 min at 37 °C, 5 µl of FMLP (1 µM final concentration) was added to stimulate LT production. The reaction was stopped 15 min later, and the supernatants were recovered by centrifugation and stored at −40 °C pending analysis of LTB4 content.
as §1, §2

[4] = test system: leukotriene (LT) biosynthesis / 5-LO; experiment: Overall activity across the four in vitro test systems (three cell-based LT release assays and 5-LO); details: for Activity across the in vitro test systems (in words): cell-based systems and cell-free 5-LO
Description: Furthermore, in order to confirm that the in vitro inhibitory activity of the compounds was not due to the direct toxic effects on the cells, the effect of the compounds on the viability of isolated human monocytes after 3 h and 24 h treatment was performed. Finally, in vivo anti-inflammatory studies were performed using the zymosan-induced peritoneal inflammation model in mice, which is a well-known model in which the LTs are known to play a critical role[26].
The inhibitory activity data for the tested compounds obtained in three cell-based in vitro test systems - LTB4 release from human whole blood, LTC4 release from isolated human monocytes and LTC4 release from IgE/antigen-activated mouse mast cells, are shown in Table 1. Similar data on the direct inhibitory effect on the enzymatic activity of recombinant human 5-LO, together with the calculated Clog P (log of partition coefficient) values, which is an indication of the lipophilicity of each compound, are also shown in Table 1.

recombinant human 5-LO = target: T1, recombinant human 5-LO (Homo sapiens, UniProt P09917); experiment: Direct inhibition of 5-LO activity in a cell-free assay (H2DCF-DA fluorescence); format: biochemical; details: for IC50: cell-free, recombinant human 5-LO, 95% confidence interval in brackets
T1 sequence (P09917 1-674): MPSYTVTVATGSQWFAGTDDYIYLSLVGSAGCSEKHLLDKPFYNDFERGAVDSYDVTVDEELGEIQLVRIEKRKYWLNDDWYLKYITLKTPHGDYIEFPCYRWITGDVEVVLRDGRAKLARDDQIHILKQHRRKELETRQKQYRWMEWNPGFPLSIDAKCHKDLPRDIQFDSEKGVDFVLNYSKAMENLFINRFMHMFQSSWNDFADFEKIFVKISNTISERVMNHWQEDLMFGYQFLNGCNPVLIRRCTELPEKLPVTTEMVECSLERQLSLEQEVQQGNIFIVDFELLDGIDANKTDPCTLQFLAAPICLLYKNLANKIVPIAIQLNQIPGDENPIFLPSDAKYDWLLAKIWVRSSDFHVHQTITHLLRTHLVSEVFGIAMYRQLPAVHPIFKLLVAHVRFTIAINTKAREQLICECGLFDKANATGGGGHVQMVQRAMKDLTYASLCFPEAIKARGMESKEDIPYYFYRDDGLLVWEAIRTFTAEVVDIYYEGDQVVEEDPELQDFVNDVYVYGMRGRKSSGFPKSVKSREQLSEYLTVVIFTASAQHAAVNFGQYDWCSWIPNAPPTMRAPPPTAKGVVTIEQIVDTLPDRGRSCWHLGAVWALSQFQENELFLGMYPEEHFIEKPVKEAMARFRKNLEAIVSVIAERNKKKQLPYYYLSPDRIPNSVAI
Description: The assay was based on the oxidation of the dye 2′,7′-dichlorodihydrofluorescein diacetate (H2DCF-DA) to a highly fluorescent product by 5-LO enzymatic products. H2DCF-DA (60 µM) was first pre-cleaved by incubating with 450 mU/ml recombinant human 5-LO enzyme in Tris buffer (containing 50 mM Tris, pH = 7.5, 2 mM EDTA, 2 mM CaCl2, 1 mM DTT and 0.6 U/ml glutathione peroxidase) for 10 min at room temperature. […] After 10 min incubation at room temperature, the reaction was started with the addition of 50 µl of substrate solution (Tris buffer containing 20 µM ATP and 20 µM arachidonic acid (AA). After a further 20 min, the reaction was terminated with 100 µl acetonitrile. Fluorescence was read at 500 nm excitation and 520 nm emission, with Novostar^R microplate reader (BMG Labtech, Offenburg, Germany). Appropriate controls, including 100 µM nordihydroguaiaretic acid (NDGA), were included to isolate only the 5-LO-attributable, NDGA-inhibitable RFU values.
as §2

[5] = read-out: Direct inhibition of 5-LO activity. IC50 (CI)

With `CC(c1cc2ccccc2s1)N(O)C(N)=O` (racemic) [Zileuton, (±)1–(1-(benzo[b]thiophen-2-yl)-ethyl)-1-hydroxyurea, reference compound] the IC50 ([1]; Monocyte) was 0.5 µM, the IC50 ([2]; Mus musculus) was 0.4 µM and the IC50 [3] was 0.7 µM.
In the case of `O=C(C1CC1)N(O)C[C@H]1CN(c2ccc(N3CCOCC3)c(F)c2)C(=O)O1` [PH-211], the IC50 [1] is reported as 7.5 µM, the “Activity across the in vitro test systems (in words)” value [4] is reported as “active in all four test systems” and the IC50 (recombinant human 5-LO; [5]) is reported as 3.5 µM. It also gave an IC50 [2] of 8.7 µM and an IC50 [3] of 1.3 µM.
With `CC(C)CC(=O)ON(C[C@H]1CN(c2ccc(N3CCOCC3)c(F)c2)C(=O)O1)C(=O)CC(C)C` [PH-237, (R)-N-((3-(3-fluoro-4-morpholinophenyl)-2-oxooxazolidin-5-yl)methyl)-3-methyl-N-((3-methylbutanoyl)oxy)butanamide] the IC50 ([1]; Monocyte) was greater than 50 µM, the “Activity across the in vitro test systems (in words)” value [4] was “inactive in both systems” and the IC50 (recombinant human 5-LO) was greater than 30 µM. The IC50 ([2]; Mus musculus) was greater than 50 µM, the IC50 [3] was greater than 50 µM and the melting point was 89 to 90 °C.
With `CC(C)CC(=O)N(O)C[C@H]1CN(c2ccc(N3CCOCC3)c(F)c2)C(=O)O1` [PH-239, (R)-N-((3-(3-fluoro-4-morpholinophenyl)-2-oxooxazolidin-5-yl)methyl)-N-hydroxy-3-methylbutanamide] the IC50 ([1]; Monocyte) was 8 µM, the “Activity across the in vitro test systems (in words)” value [4] was “active in all four test systems” and the IC50 (recombinant human 5-LO) was 4.7 µM. The IC50 ([2]; Mus musculus) was 3.1 µM, the IC50 [3] was 3.5 µM and the melting point was 122 to 124.5 °C.
In the case of `CCCCC(=O)N(O)C[C@H]1CN(c2ccc(N3CCOCC3)c(F)c2)C(=O)O1` [PH-241, (R)-N-((3-(3-fluoro-4-morpholinophenyl)-2-oxooxazolidin-5-yl)methyl)-N-hydroxypentanamide], the IC50 ([1]; Monocyte) is reported as 3.2 µM, the “Activity across the in vitro test systems (in words)” value [4] is reported as “active in all four test systems” and the IC50 (recombinant human 5-LO) is reported as 3.3 µM. For the same compound, the IC50 ([2]; Mus musculus) was 2.8 µM and the IC50 [3] was 2.2 µM.
In the case of `O=C(C1CCCC1)N(O)C[C@H]1CN(c2ccc(N3CCOCC3)c(F)c2)C(=O)O1` [PH-244, (R)-N-((3-(3-fluoro-4-morpholinophenyl)-2-oxooxazolidin-5-yl)methyl)-N-hydroxycyclopentanecarboxamide], the IC50 [3] is reported as 5.5 µM.
For `O=C(C1CCC1)N(O)C[C@H]1CN(c2ccc(N3CCOCC3)c(F)c2)C(=O)O1` [PH-245, (R)-N-((3-(3-fluoro-4-morpholinophenyl)-2-oxooxazolidin-5-yl)methyl)-N-hydroxycyclobutanecarboxamide], the IC50 [3] was 3.4 µM.
In the case of `CCCCCC(=O)ON(C[C@H]1CN(c2ccc(N3CCOCC3)c(F)c2)C(=O)O1)C(=O)CCCCC` [PH-246], the IC50 [1] is reported as 7.1 µM, the “Inhibition of isolated 5-LO enzyme activity (in words)” value (recombinant human 5-LO; cell-free experiments) is reported as “very weak” and the IC50 (recombinant human 5-LO; [5]) is reported as 21.6 µM. For the same compound, the IC50 [2] was 3.3 µM and the IC50 [3] was 1.5 µM.
For `CCCCCC(=O)N(O)C[C@H]1CN(c2ccc(N3CCOCC3)c(F)c2)C(=O)O1` [PH-247, (R)-N-((3-(3-fluoro-4-morpholinophenyl)-2-oxooxazolidin-5-yl)methyl)-N-hydroxyhexanamide], the IC50 ([1]; Monocyte) was 2.5 µM, the “Activity across the in vitro test systems (in words)” value [4] was “active in all four test systems” and the IC50 (recombinant human 5-LO) was 3.4 µM. For the same compound, the IC50 ([2]; Mus musculus) was 2.9 µM, the IC50 [3] was 2.3 µM and the melting point was 118.5 to 120.5 °C.
For `CCCCCCCC(=O)N(O)C[C@H]1CN(c2ccc(N3CCOCC3)c(F)c2)C(=O)O1` [PH-251, (R)-N-((3-(3-fluoro-4-morpholinophenyl)-2-oxooxazolidin-5-yl)methyl)-N-hydroxyoctanamide], the IC50 ([1]; Monocyte) was 2.4 µM, the “Activity across the in vitro test systems (in words)” value [4] was “active in all four test systems” and the IC50 ([4]; summary statements, in vitro test systems, read-out: IC50 (test system not specified / across test systems)) was less than 1 µM. It also gave an IC50 (recombinant human 5-LO) of 1.6 µM, an IC50 ([2]; Mus musculus) of 0.2 µM and an IC50 [3] of 1.9 µM.
